Measurements from article PMC11995216, “End-to-End Backbone Cyclization Enhances Passive Permeability of bRo5 Oligomeric Depsipeptides with Nonlinear Size Dependence” (ACS Medicinal Chemistry Letters, 2025).
Several values for one entry are separate records, joined by “and”; a condition that tells them apart may be missing. Equal values may be shown once. Read-outs that look alike come from different tables or passages of the source.

Tests used:
[1] = calculated using Supplement Equation 1, UV detection
PAMPA [2] = details: UV detection
[3] = UV detection
PAMPA [4] = details: UV detection, initial concentration 500 uM
[5] = PAMPA, 500 uM
in vitro = details: PAMPA
[6] = initial concentration 500 uM, UV detection
[7] = initial concentration 500 uM, UV detection; remark: listed apart in the source

CCCCC[C@H](NC(=O)[C@@H](C)N(C)C(=O)OC(C)(C)C)C(=O)N(C)[C@H](C)C(=O)N[C@H](CCCCC)C(=O)N(C)[C@H](C)C(=O)O[C@@H](CCCCC)C(=O)N(C)[C@H](C)C(=O)O[C@@H](CCCCC)C(=O)OCc1ccccc1 (stereo in doubt) [Compound L2.2]
%T ([1]; Well 1 / %T, Well 1): 0.34% and 0.4% | %T ([1]; Well 2 / %T, Well 2): 0.4% | %T ([1]; Well 3 / %T, Well 3): 0.36% and 0.39% | %T ([1]; Well 4 / %T, Well 4): 0.36% and 0.38% | %T ([1]; Well 5 / %T, Well 5): 0.38% and 0.4% | Papp (PAMPA [2]; Papp (x 10^-6 cm/s) / [row 1]): 2.7 ×10⁻⁶ cm/s | Papp (PAMPA [2]; Papp (x 10^-6 cm/s) / [row 2]): 2.86 ×10⁻⁶ cm/s | Papp (PAMPA [2]; Papp (x 10^-6 cm/s) / [row 3]): 3.2 ×10⁻⁶ cm/s | Papp (PAMPA [2]; Papp (x 10^-6 cm/s) / [row 4]): 2.91 ×10⁻⁶ cm/s | Papp (PAMPA [2]; Papp (x 10^-6 cm/s) / [row 5]): 2.54 ×10⁻⁶ cm/s | Papp (PAMPA [2]; Papp (x 10^-6 cm/s) / [row 6]): 2.78 ×10⁻⁶ cm/s | Papp (PAMPA [2]; Papp (x 10^-6 cm/s) / [row 7]): 2.8 ×10⁻⁶ cm/s | Papp (PAMPA [2]; Papp (x 10^-6 cm/s) / [row 8]): 2.55 ×10⁻⁶ cm/s | Papp (PAMPA [2]; Papp (x 10^-6 cm/s) / [row 9]): 2.9 ×10⁻⁶ cm/s | Papp (PAMPA [2]; Papp (x 10^-6 cm/s) / [row 10]): 2.68 ×10⁻⁶ cm/s | % recovery ([3]; Well 1 / %R, Well 1): 95% | % recovery ([3]; Well 2 / %R, Well 2): 91% and 89% | % recovery ([3]; Well 3 / %R, Well 3): 91% | % recovery ([3]; Well 4 / %R, Well 4): 98% and 90% | % recovery ([3]; Well 5 / %R, Well 5): 89% | Acceptor Concentration (PAMPA [4]; Acceptor Concentration (uM) / [row 1]): 68.3 µM | Acceptor Concentration (PAMPA [4]; Acceptor Concentration (uM) / [row 2]): 68.9 µM | Acceptor Concentration (PAMPA [4]; Acceptor Concentration (uM) / [row 3]): 76.7 µM | Acceptor Concentration (PAMPA [4]; Acceptor Concentration (uM) / [row 4]): 75.8 µM | Acceptor Concentration (PAMPA [4]; Acceptor Concentration (uM) / [row 5]): 62.9 µM | Acceptor Concentration (PAMPA [4]; Acceptor Concentration (uM) / [row 6]): 70.1 µM | Acceptor Concentration (PAMPA [4]; Acceptor Concentration (uM) / [row 7]): 66.3 µM | Acceptor Concentration (PAMPA [4]; Acceptor Concentration (uM) / [row 8]): 62.1 µM | Acceptor Concentration (PAMPA [4]; Acceptor Concentration (uM) / [row 9]): 69 µM | Acceptor Concentration (PAMPA [4]; Acceptor Concentration (uM) / [row 10]): 63.9 µM | LogPapp [5]: -5.55 ± 0.03 | Δ % diffusion [5]: ↑17% | Papp at 500 uM (in vitro; Papp): 2.79 ± 0.19 ×10⁻⁶ cm/s | donor concentration after incubation ([6]; Well 1 / [donor], Well 1): 406 µM and 404 µM | donor concentration after incubation ([6]; Well 2 / [donor], Well 2): 384 µM and 380 µM | donor concentration after incubation ([6]; Well 3 / [donor], Well 3): 381 µM and 392 µM | donor concentration after incubation ([6]; Well 4 / [donor], Well 4): 416 µM and 380 µM | donor concentration after incubation ([6]; Well 5 / [donor], Well 5): 398 µM and 382 µM | acceptor concentration after incubation ([7]; Well 1 / [acc], Well 1): 70.2 µM

CCCCC[C@H](OC(=O)[C@@H](C)N(C)C(=O)[C@H](CCCCC)OC(=O)[C@@H](C)N(C)C(=O)OC(C)(C)C)C(=O)OCc1ccccc1 [Compound L1.2]
%T ([1]; Well 1 / %T, Well 1): 0.43% and 0.47% | %T ([1]; Well 2 / %T, Well 2): 0.48% and 0.46% | %T ([1]; Well 3 / %T, Well 3): 0.48% and 0.47% | %T ([1]; Well 4 / %T, Well 4): 0.48% and 0.49% | %T ([1]; Well 5 / %T, Well 5): 0.5% and 0.49% | Papp (PAMPA [2]; Papp (x 10^-6 cm/s) / experiment 1): 3.2 ×10⁻⁶ cm/s | Papp (PAMPA [2]; Papp (x 10^-6 cm/s) / experiment 2): 3.8 ×10⁻⁶ cm/s | Papp (PAMPA [2]; Papp (x 10^-6 cm/s) / experiment 3): 3.8 ×10⁻⁶ cm/s | Papp (PAMPA [2]; Papp (x 10^-6 cm/s) / experiment 4): 3.7 ×10⁻⁶ cm/s | Papp (PAMPA [2]; Papp (x 10^-6 cm/s) / experiment 5): 3.9 ×10⁻⁶ cm/s | Papp (PAMPA [2]; Papp (x 10^-6 cm/s) / experiment 6): 3.4 ×10⁻⁶ cm/s | Papp (PAMPA [2]; Papp (x 10^-6 cm/s) / experiment 7): 3.9 ×10⁻⁶ cm/s | Papp (PAMPA [2]; Papp (x 10^-6 cm/s) / experiment 8): 3.3 ×10⁻⁶ cm/s | Papp (PAMPA [2]; Papp (x 10^-6 cm/s) / experiment 9): 3.7 ×10⁻⁶ cm/s | Papp (PAMPA [2]; Papp (x 10^-6 cm/s) / experiment 10): 3.6 ×10⁻⁶ cm/s | % recovery ([3]; Well 1 / %R, Well 1): 93% | % recovery ([3]; Well 2 / %R, Well 2): 96% | % recovery ([3]; Well 3 / %R, Well 3): 85% and 90% | % recovery ([3]; Well 4 / %R, Well 4): 84% and 85% | % recovery ([3]; Well 5 / %R, Well 5): 82% | Acceptor Concentration (PAMPA [4]; Acceptor Concentration (uM) / experiment 1): 72 µM | Acceptor Concentration (PAMPA [4]; Acceptor Concentration (uM) / experiment 2): 80.6 µM | Acceptor Concentration (PAMPA [4]; Acceptor Concentration (uM) / experiment 3): 77.4 µM | Acceptor Concentration (PAMPA [4]; Acceptor Concentration (uM) / experiment 4): 75.2 µM | Acceptor Concentration (PAMPA [4]; Acceptor Concentration (uM) / experiment 5): 77.1 µM | Acceptor Concentration (PAMPA [4]; Acceptor Concentration (uM) / experiment 6): 90.3 µM | Acceptor Concentration (PAMPA [4]; Acceptor Concentration (uM) / experiment 7): 86.9 µM | Acceptor Concentration (PAMPA [4]; Acceptor Concentration (uM) / experiment 8): 80.4 µM | Acceptor Concentration (PAMPA [4]; Acceptor Concentration (uM) / experiment 9): 87.3 µM | Acceptor Concentration (PAMPA [4]; Acceptor Concentration (uM) / experiment 10): 83.7 µM | Δ % diffusion [5]: ↑5% | Papp at 500 uM (in vitro; LogPapp): 1.82 ×10⁻⁶ cm/s | Papp at 500 uM (in vitro; Papp): 3.44 ± 0.33 ×10⁻⁶ cm/s | donor concentration after incubation ([6]; Well 1 / [donor], Well 1, standard curve): 391 µM and 364 µM | donor concentration after incubation ([6]; Well 2 / [donor], Well 2, standard curve): 361 µM and 396 µM | donor concentration after incubation ([6]; Well 3 / [donor], Well 3, standard curve): 348 µM and 368 µM | donor concentration after incubation ([6]; Well 4 / [donor], Well 4, standard curve): 345 µM and 348 µM | donor concentration after incubation ([6]; Well 5 / [donor], Well 5, standard curve): 331 µM and 358 µM | acceptor concentration after incubation ([7]; Well 1 / [acc], Well 1, standard curve): 77 µM | acceptor concentration after incubation ([7]; Well 2 / [acc], Well 2, standard curve): 81.5 µM | acceptor concentration after incubation ([7]; Well 3 / [acc], Well 3, standard curve): 79.5 µM | acceptor concentration after incubation ([7]; Well 4 / [acc], Well 4, standard curve): 78.8 µM | acceptor concentration after incubation ([7]; Well 5 / [acc], Well 5, standard curve): 81.8 µM
